According to US20250034216A1, “STEREOSELECTIVE COVALENT LIGANDS FOR ONCOGENIC AND IMMUNOLOGICAL PROTEINS” (The Scripps Research Institute, priority 2021, published 2025):

Legend:
Experiment in all cases: IA-DTB cysteine engagement
Format in all cases: binding
Settings in all cases: 22Rv1 cells, 20 μM probe, 1 h, relative to DMSO
TOMM70_C214 = target: T1, TOMM70_C214 (Homo sapiens, UniProt O94826)
T1 construct: endogenous in cells; host or cells: 22Rv1
T1 sequence (O94826 1-608): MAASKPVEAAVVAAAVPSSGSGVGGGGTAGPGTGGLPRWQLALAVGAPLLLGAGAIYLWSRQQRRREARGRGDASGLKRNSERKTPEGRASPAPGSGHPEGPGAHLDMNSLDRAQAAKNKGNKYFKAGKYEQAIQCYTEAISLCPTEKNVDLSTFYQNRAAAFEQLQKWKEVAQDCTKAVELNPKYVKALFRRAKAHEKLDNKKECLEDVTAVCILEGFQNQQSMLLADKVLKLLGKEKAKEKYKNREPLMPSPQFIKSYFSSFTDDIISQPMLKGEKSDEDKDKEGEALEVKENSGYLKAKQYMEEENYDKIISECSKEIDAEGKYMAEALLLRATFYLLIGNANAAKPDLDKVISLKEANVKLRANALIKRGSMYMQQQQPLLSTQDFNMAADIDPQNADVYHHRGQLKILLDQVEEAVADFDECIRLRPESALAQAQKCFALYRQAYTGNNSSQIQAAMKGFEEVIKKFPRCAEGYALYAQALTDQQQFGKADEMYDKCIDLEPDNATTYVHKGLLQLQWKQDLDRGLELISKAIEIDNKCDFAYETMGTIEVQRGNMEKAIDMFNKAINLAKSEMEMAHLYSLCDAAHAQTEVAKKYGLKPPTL
In short: (§1)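 First, cells are exposed to electrophilic probes in situ. Next, lysates are labeled with IA-DTB (1 h, ambient temperature), reduced, alkylated and trypsin-digested. Then, IA-DTB peptides are enriched on streptavidin, TMT-labeled and analyzed, with ratios taken against DMSO channels.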

ABCA2_C2385 = target: T2, ABCA2_C2385 (Homo sapiens, UniProt Q9BZC7)
T2 construct: endogenous in cells; host or cells: 22Rv1
T2 sequence (Q9BZC7 whole entry): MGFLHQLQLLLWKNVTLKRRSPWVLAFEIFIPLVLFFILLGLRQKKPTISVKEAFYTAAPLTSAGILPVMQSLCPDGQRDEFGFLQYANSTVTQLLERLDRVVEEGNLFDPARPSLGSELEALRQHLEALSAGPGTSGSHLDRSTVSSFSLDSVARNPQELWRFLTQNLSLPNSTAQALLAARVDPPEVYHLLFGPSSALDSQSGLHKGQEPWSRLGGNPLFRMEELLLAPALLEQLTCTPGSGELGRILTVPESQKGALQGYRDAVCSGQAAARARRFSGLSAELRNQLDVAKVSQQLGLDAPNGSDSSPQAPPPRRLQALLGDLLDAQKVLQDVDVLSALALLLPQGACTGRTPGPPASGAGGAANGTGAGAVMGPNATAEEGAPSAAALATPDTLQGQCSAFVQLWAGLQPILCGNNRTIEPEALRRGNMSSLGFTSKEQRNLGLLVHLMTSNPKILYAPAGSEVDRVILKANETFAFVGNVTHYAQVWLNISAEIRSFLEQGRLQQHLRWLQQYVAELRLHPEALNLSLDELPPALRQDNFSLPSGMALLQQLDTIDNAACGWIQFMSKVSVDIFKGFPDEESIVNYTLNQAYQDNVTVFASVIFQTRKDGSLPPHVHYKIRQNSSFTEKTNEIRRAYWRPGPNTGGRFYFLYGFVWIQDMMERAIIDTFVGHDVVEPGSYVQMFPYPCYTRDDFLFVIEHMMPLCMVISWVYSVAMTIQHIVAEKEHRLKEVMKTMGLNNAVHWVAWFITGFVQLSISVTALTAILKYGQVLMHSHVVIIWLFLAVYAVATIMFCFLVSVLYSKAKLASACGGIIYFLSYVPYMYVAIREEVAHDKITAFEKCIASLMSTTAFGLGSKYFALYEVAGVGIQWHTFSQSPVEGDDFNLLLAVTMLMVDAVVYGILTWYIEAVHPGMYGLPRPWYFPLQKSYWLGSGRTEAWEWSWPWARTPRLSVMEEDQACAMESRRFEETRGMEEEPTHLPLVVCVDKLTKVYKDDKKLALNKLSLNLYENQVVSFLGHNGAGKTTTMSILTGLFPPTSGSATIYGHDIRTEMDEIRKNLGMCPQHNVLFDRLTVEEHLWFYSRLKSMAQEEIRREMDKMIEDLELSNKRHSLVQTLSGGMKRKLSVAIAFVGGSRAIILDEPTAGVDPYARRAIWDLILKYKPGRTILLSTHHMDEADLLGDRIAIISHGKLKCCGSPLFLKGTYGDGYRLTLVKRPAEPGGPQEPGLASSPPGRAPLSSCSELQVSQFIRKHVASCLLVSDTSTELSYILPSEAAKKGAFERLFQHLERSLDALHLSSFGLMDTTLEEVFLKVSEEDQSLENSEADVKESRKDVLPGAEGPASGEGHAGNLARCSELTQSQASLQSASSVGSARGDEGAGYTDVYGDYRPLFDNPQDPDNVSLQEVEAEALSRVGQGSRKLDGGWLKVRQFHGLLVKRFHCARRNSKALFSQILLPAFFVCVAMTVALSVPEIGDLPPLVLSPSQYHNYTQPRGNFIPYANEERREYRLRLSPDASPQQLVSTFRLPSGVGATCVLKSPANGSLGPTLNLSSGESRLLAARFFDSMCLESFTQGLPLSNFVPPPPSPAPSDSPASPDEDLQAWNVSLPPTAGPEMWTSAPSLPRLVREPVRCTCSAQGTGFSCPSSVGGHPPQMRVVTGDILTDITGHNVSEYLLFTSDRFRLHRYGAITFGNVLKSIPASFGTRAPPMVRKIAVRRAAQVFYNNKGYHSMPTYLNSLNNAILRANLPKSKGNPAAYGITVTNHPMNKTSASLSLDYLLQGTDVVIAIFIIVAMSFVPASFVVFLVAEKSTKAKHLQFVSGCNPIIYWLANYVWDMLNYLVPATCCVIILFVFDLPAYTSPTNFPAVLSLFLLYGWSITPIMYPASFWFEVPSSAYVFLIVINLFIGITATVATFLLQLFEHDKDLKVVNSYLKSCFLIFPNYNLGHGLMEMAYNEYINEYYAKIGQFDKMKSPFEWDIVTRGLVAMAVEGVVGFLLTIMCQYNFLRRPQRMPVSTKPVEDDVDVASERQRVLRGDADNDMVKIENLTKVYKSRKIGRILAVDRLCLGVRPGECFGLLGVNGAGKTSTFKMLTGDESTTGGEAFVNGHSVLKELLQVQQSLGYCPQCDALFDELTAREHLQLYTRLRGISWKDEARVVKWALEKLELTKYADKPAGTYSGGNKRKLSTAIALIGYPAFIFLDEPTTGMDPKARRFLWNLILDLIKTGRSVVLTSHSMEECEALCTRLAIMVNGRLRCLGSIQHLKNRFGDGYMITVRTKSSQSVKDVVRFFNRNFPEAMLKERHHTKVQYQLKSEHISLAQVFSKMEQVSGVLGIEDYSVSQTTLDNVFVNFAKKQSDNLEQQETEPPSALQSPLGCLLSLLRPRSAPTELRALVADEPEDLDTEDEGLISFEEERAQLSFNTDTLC
In short: as §1

C3orf33_C275 = target: T3, C3orf33_C275 (Homo sapiens, UniProt Q6P1S2)
T3 construct: endogenous in cells; host or cells: 22Rv1
T3 sequence (Q6P1S2 1-294): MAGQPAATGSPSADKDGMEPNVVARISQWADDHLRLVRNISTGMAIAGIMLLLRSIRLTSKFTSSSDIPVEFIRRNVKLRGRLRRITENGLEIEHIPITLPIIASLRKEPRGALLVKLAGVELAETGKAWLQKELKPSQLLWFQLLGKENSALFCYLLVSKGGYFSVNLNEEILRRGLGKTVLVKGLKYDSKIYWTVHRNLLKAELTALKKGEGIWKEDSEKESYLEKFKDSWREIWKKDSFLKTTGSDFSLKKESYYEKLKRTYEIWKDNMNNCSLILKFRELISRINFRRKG
In short: as §1

ACTL8_C197 = target: T4, ACTL8_C197 (Homo sapiens, UniProt Q9H568)
T4 construct: endogenous in cells; host or cells: 22Rv1
T4 sequence (Q9H568 1-366): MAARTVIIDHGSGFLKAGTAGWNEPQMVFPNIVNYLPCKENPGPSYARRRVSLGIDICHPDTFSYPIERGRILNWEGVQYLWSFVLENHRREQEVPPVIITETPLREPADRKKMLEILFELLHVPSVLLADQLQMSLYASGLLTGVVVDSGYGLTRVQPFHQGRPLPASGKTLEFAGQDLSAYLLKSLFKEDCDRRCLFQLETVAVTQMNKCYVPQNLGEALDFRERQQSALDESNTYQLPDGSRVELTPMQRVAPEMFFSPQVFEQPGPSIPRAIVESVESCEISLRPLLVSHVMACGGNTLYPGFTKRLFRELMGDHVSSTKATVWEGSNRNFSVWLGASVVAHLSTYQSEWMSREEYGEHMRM
In short: as §1

SMILES | % engagement TOMM70_C214 (TOMM70_C214) | % engagement ABCA2_C2385 (ABCA2_C2385) | % engagement C3orf33_C275 (C3orf33_C275) | % engagement ACTL8_C197 (ACTL8_C197)
C=CC(=O)N1C[C@H](c2ccc(Br)cc2)[C@@H]1C(=O)Nc1cccc2cccnc12 [MY-1B, (2R,3S)-1-acryloyl-3-(4-bromophenyl)-N-(quinolin-8-yl)azetidine-2-carboxamide] | 29% | 78% | 83% | 66.25%
C=CC(=O)N1C[C@H](c2ccc(Br)cc2)[C@H]1C(=O)Nc1cccc2cccnc12 [MY-3B, (2S,3S)-1-acryloyl-3-(4-bromophenyl)-N-(quinolin-8-yl)azetidine-2-carboxamide] | 71.5% | 72.5% | 84% | 36.75%
C=CC(=O)N1C[C@H](c2ccc(Br)cc2)[C@H]1C(=O)Nc1cccc2cccnc12 [MY-3A, (2S,3S)-1-acryloyl-3-(4-bromophenyl)-N-(quinolin-8-yl)azetidine-2-carboxamide] | 30.5% | 42.5% | 85% | 3.25%
C=CC(=O)N1C[C@@H](c2ccc(Br)cc2)[C@H]1C(=O)Nc1cccc2cccnc12 [MY-1A, (2S,3R)-1-acryloyl-3-(4-bromophenyl)-N-(quinolin-8-yl)azetidine-2-carboxamide] | 7.5% | 33% | 83.5% | 14%
